Experimental data: US6355481B1, “Hybridoma cell line and monoclonal antibody for huntingtin protein” (Emory University, priority 1999, dated 2002)

Experiments:
150Q cells [1] = experiment: Cell viability (MTS) assay, 150Q cells; type: cell-based, rat
Method: Cell viability and apoptosis assays. […] PC12 cells were plated in 96-well plates at a density of 10,000 cells/well and maintained 16-24 hr in complete medium. […] Leptomycin B (LMB; 10 nM) [provided by Dr. Minoru Yoshida (Kudo et al. (1997) J. Biol. […] After drug treatment, 20 μl of MTS reagent (2.1 mg/ml) was added to each well. The cells were then incubated for 30-45 min at 37° C. in a 5% CO2 incubator. The reaction was stopped by adding 25 μl of 10% SDS. The plates were read with a microplate reader (SPECTRAmax Plus; Molecular Devices, Palo Alto, Calif.) at 490 nm. Each data point was obtained using a triplet-well assay.

150Q cells [2] = experiment: EM48 immunofluorescence and Hoechst staining after LMB, 150Q cells; type: cell-based, rat; conditions: LMB 10 nM
Method: (§1) Immunofluorescent labeling of cultured cells. Transfected cells grown in chamber slides were fixed in 4% paraformaldehyde in PBS for 15 min, permeabilized with 0.4% Triton X-100 in PBS for 30 min, blocked with 5% normal goat serum (NGS) in PBS for 1 hr, and incubated with primary antibodies in 2% NGS and PBS overnight at 4° C. After several washes, the cells were incubated with secondary antibodies conjugated with either FITC or rhodamine (Jackson ImmunoResearch, West Grove, Pa.). Hoechst dye (1 μg/ml) was used to label the nuclei. A Zeiss fluorescent microscope (Axioskop 2) and video system (Dage-MTI, Michigan City, Ind.) were used to capture images. The captured images were stored and processed using Adobe Photoshop software. Cell viability and apoptosis assays. […] PC12 cells were plated in 96-well plates at a density of 10,000 cells/well and maintained 16-24 hr in complete medium. […] Leptomycin B (LMB; 10 nM) [provided by Dr. Minoru Yoshida (Kudo et al. (1997) J. Biol. Chem. 272:29742-29751)] was added to the medium for 12-16 hr. After drug treatment, 20 μl of MTS reagent (2.1 mg/ml) was added to each well. The cells were then incubated for 30-45 min at 37° C. in a 5% CO2 incubator. The reaction was stopped by adding 25 μl of 10% SDS. The plates were read with a microplate reader (SPECTRAmax Plus; Molecular Devices, Palo Alto, Calif.) at 490 nm. […]

20Q cells [3] = experiment: EM48 immunofluorescence and Hoechst staining after LMB, 20Q cells; type: cell-based, rat; conditions: LMB 10 nM
Method: as §1

parental PC12 cells [4] = experiment: Neurite outgrowth assay, parental PC12 cells; type: cell-based, rat; conditions: for neurite outgrowth promoted by growth factor: control/parental PC12 cells, IL-6 20 ng/ml, CNTF 20 ng/ml, EGF 10 ng/ml, bFGF 20 ng/ml
Method: To evaluate neurite outgrowth, we plated the cells at low density (2×10^4 Cells/cm^2) onto six-well plates. Cell cultures were treated with NGF (100 ng/ml) for 48 hr or with staurosporine (50-100 nM) and EGF (10 ng/ml) for 16 hr and were fixed with 4% paraformaldehyde in PBS for 15 min. After several washes with PBS, cells with neurites exceeding the cell diameter were counted using an inverted microscope (Olympus Optical CK2, Tokyo, Japan). At the same time, five to seven images (10×) were captured by a Pixera camera, and the percentage of cells with neurites was confirmed by analyzing these images. On average, 500-800 cells were counted for each group.

[5] = system: PC12 cells expressing the 150Q mutant HD exon-1 protein (150Q cells); experiment: Neurite outgrowth assay, 150Q cells; type: cell-based, rat
Text: (§2) Huntingtin constructs, transfection, and selection of stably transfected cell lines. A partial huntingtin CDNA containing 20 (20Q) or 150 CAG repeats was isolated from a lambda phage DNA that contains exon-1 of the human HD gene [provided by Dr. Gillian Bates (Mangiarini et al. (1996) Cell 87:493-506)]. The N-terminal huntingtin fragments encoded by these cDNAs were expressed using the pCIS expression vector that carries a cytomegalovirus promoter (Li et al. (1998) Hum. Molec. Genet. 7:777-782). The pCDNA3 vector, which carries the G418 resistance gene (Invitrogen, San Diego, Calif.), was cotransfected with the pCIS-huntingtin constructs. Subconfluent PC12 cells in 80 mm dishes were transfected with 7 μg of plasmid DNA and 10 μg/ml lipofectAMINE (Life Technologies) per dish. The transfected cells were then selected in the presence of 500 μg/ml G418 in DM EM plus 5% fetal bovine serum and 10% horse serum. Selected G418-resistant cells were subcloned and maintained in the same conditioned medium until each cell line contained homogenous transfected cells. […]
(§3) To evaluate neurite outgrowth, we plated the cells at low density (2×10^4 Cells/cm^2) onto six-well plates. […] After several washes with PBS, cells with neurites exceeding the cell diameter were counted using an inverted microscope (Olympus Optical CK2, Tokyo, Japan). […] On average, 500-800 cells were counted for each group.

parental PC12 cells [6] = experiment: Trypan blue exclusion cell death assay, parental PC12 cells; type: cell-based, rat; conditions: 100 nm staurosporine
Method: (§4) Cell death rate and neurite outgrowth assays. Cells were plated at a standard density (4×10^4/cm^2) in six-well plates with DMEM supplemented with 5% FBS and 10% horse serum. Cultured cells were harvested, centrifuged at 1000 rpm for 5 min, and resuspended in PBS containing 0.4% trypan blue. The cells were incubated in the trypan blue solution for 10 min and transferred to a hemocytometer, and the number of viable (phase bright) and nonviable (blue) cells was recorded. For each sample, cell counts in four corner fields of the hemocytometer were averaged.

150Q cells [7] = experiment: Trypan blue exclusion cell death assay, 150Q cells; type: cell-based, rat
Method: as §4

20Q cells [8] = experiment: Cell viability (MTS) assay, 20Q cells; type: cell-based, rat; conditions: 20Q cells vs parental PC12 cells, >250 nM staurosporine
Method: Cell viability was determined by a modified 3-(4,5-dimethylthiazol-2-yl)-2,5-diphenyltetrazohum bromide (MTS) assay (Cell Titer 96; Promega), which is based on the conversion of tetrazolium salt 3-(4,5-dimethylthiazol-2-yl)-5-(3-carboxymethoxyphenyl)-2-(4-sulfophenyl) 2-H-tetrazolium by mitochondrial dehydrogenase to a formazan product, as measured at an absorbance of 490 nm. PC12 cells were plated in 96-well plates at a density of 10,000 cells/well and maintained 16-24 hr in complete medium. Cells were then changed to medium containing 1% FBS in the absence or presence of staurosporine at different concentrations. Staurosporine was dissolved in 2 mM dimethylsulfoxide (DMSO) and diluted in the medium at various concentrations. […] After drug treatment, 20 μl of MTS reagent (2.1 mg/ml) was added to each well. The cells were then incubated for 30-45 min at 37° C. in a 5% CO2 incubator. The reaction was stopped by adding 25 μl of 10% SDS. The plates were read with a microplate reader (SPECTRAmax Plus; Molecular Devices, Palo Alto, Calif.) at 490 nm. Each data point was obtained using a triplet-well assay.

parental PC12 cells [9] = conditions: PC12 cells (Yao et al. 1997); cited from earlier work
[10] = system: PC12 cells expressing the 20Q HD exon-1 protein (20Q cells); experiment: Neurite outgrowth assay, 20Q cells; type: cell-based, rat; conditions: IL-6 20 ng/ml
Text: as §2, §3

[11] = 150Q cells treated with EGF and staurosporine together

For CCC(=C/[C@H](C)C/C=C/C(C)=C/[C@@H](C)C(=O)[C@@H](C)[C@H](O)[C@@H](C)C/C(C)=C/C(=O)O)/C=C/[C@@H]1OC(=O)C=C[C@@H]1C [LMB, Leptomycin B], the “cell viability after exposure to LMB” value (150Q cells [1]; 150Q cells vs control cells, LMB 10 nM) was “more 150Q cells than control cells were dying”, the “DNA fragmentation after LMB” value (150Q cells [2]) was “more 150Q cells showed DNA fragmentation” and the “intranuclear EM48 labeling after LMB” value (150Q cells [2]; vs without LMB) was “more 150Q cells had intense intranuclear EM48 labeling”. The “DNA fragmentation after LMB” value (20Q cells [3]) was “very few LMB-treated 20Q cells had DNA fragmentation” and the “nuclear labeling after LMB” value (20Q cells [3]) was “increased the nuclear labeling of some 20Q cells”.
With CN[C@@H]1C[C@H]2O[C@@](C)([C@@H]1OC)n1c3ccccc3c3c4c(c5c6ccccc6n2c5c31)C(=O)NC4 [staurosporine] the “neurite outgrowth with staurosporine” value (parental PC12 cells [4]; parental PC12 cells, 100 nm staurosporine) was “grew neurites”, the “neurite outgrowth with staurosporine” value ([5]; 150Q cells, 100 nm staurosporine, living cells) was “some of the living 150Q cells displayed neurite outgrowth” and the “cell death with staurosporine” value (parental PC12 cells [6]) was “without displaying significant cell death”. For the same compound, the “cell death with staurosporine” value (150Q cells [7]; 150Q cells, 100 nm staurosporine) was “killed a significant number of 150Q cells”, the “susceptibility to staurosporine (cell viability)” value (150Q cells [1]; 150Q cells vs 20Q or parental PC12 cells, 10-125 nM staurosporine) was “more susceptible” and the “cell killing by higher doses of staurosporine” value (20Q cells [8]) was “killed more 20Q cells than parental PC12 cells”. For the same compound, the “time to initiation of neurite outgrowth” value (parental PC12 cells [9]) was 4 to 6 h.
For IL-6: interleukin-6, the “neurite outgrowth promoted by growth factor” value (shortened to “neurite outgrowth promoted”) (parental PC12 cells [4]) was “promoted neurite outgrowth” and the “neurite outgrowth promoted” value [10] was “promoted neurite outgrowth”.
For “EGF: epidermal growth factor (NSDSECPLSHDGYCLHDGVCMYIEALDKYACNCVVGYIGERCQYRDLKWWELR; Epidermal growth factor; UniProt P01133 971-1023, looked up)”, the “neurite outgrowth promoted” value (parental PC12 cells [4]) was “very weak effect”, the “effect of EGF on neurite outgrowth” value [5, 11] was “significantly enhanced neurite outgrowth” and the “effect of EGF on cell death” value (150Q cells [7]; [11]) was “reduced cell death”. The “effect of EGF on cell viability” value (150Q cells [1]; 150Q cells, EGF 10 ng/ml in the presence of 10-100 nM staurosporine) was “significantly increased cell viability”.
